23 compounds from PubChem BioAssay AID330 (DTP/NCI, 2004) can be followed below.

Values joined by “and” are separate entries in the source; they are usually repeats but may differ in a detail not shown here. Equal entries are not always repeated. Inconclusive results and toxic doses are left out.

The test system of the test is P388 leukemia ip, CD2F1 mice, survival T/C. Description: NCI In Vivo Anticancer Drug Screen. Data for tumor model P388 Leukemia (intraperitoneal) in CD2F1 (CDF1) mice. To be noted: endpoint: median survival time, higher = longer survival. Put shortly:
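Mice carrying the transplanted tumor received test compound or vehicle. Survival was recorded in each group, and the value is the treated-group measurement divided by that of the vehicle-treated control group.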

Where [1] appears, read: dose: 60.0 mg/kg/injection, schedule: Q01DX005 (ip), vehicle: saline with Tween-80.
The mark [2] stands for this setting: dose: 120.0 mg/kg/injection, schedule: Q01DX005 (ip), vehicle: saline with Tween-80.
Where [3] appears, read: dose: 240.0 mg/kg/injection, schedule: Q01DX005 (ip), vehicle: saline with Tween-80.
[4] abbreviates: dose: 50.0 mg/kg/injection, schedule: Q01DX009 (ip), vehicle: saline with Tween-80.
Where [5] appears, read: dose: 50.0 mg/kg/injection, schedule: Q01DX009 (ip), vehicle: Klucel (hydroxypropylcellulose) (HPC).
Where [6] appears, read: dose: 100.0 mg/kg/injection, schedule: Q04DX003 (ip), vehicle: saline.
[7] abbreviates: dose: 200.0 mg/kg/injection, schedule: Q04DX003 (ip), vehicle: saline.
[8] abbreviates: dose: 400.0 mg/kg/injection, schedule: Q04DX003 (ip), vehicle: saline.
[9] abbreviates: dose: 100.0 mg/kg/injection, schedule: Q01DX009 (ip), vehicle: saline with Tween-80.
Setting [10] is: dose: 200.0 mg/kg/injection, schedule: Q01DX009 (ip), vehicle: saline with Tween-80.
Where [11] appears, read: dose: 400.0 mg/kg/injection, schedule: Q01DX009 (ip), vehicle: saline with Tween-80.

Turning to `Cc1cc(-c2ccc(N=Nc3ccc4c(S(=O)(=O)O)cc(S(=O)(=O)O)c(N)c4c3O)c(C)c2)ccc1N=Nc1ccc2c(S(=O)(=O)O)cc(S(=O)(=O)O)c(N)c2c1O`, the T/C runs as follows: (dose: 12.5 mg/kg/injection, schedule: Q01DX009 (ip), vehicle: saline) 116 % of control; (dose: 25.0 mg/kg/injection, schedule: Q01DX009 (ip), vehicle: saline) 107 % of control.

In the case of `O=C(O)C1C2C(=O)N(CO)C(=O)C2C(C(=O)O)C2C3C(=O)N(CO)C(=O)C3C12` (configuration not stated), the T/C was 108 % of control (dose: 12.5 mg/kg/injection, schedule: Q01DX009 (ip), vehicle: water); 99 % of control (dose: 25.0 mg/kg/injection, schedule: Q01DX009 (ip), vehicle: water); 102 % of control and 105 % of control and 92 % of control (dose: 50.0 mg/kg/injection, schedule: Q01DX009 (ip), vehicle: water); 107 % of control and 117 % of control and 120 % of control (dose: 100.0 mg/kg/injection, schedule: Q01DX009 (ip), vehicle: water); 114 % of control and 120 % of control (dose: 200.0 mg/kg/injection, schedule: Q01DX009 (ip), vehicle: water).

With `CC1(C)C=CC(=O)C=C1C#N`, the T/C by setting is: (dose: 100.0 mg/kg/injection, schedule: Q01DX001 (ip), vehicle: Klucel (hydroxypropylcellulose) (HPC)) 92 % of control; (dose: 200.0 mg/kg/injection, schedule: Q01DX001 (ip), vehicle: Klucel (hydroxypropylcellulose) (HPC)) 104 % of control; (dose: 400.0 mg/kg/injection, schedule: Q01DX001 (ip), vehicle: Klucel (hydroxypropylcellulose) (HPC)) 106 % of control.

In the case of `COc1ccc(OC)c(NC(=O)CCCC(=O)CC(=O)c2cccnc2)c1`, the T/C is 103 % of control under setting [1], 103 % of control under setting [2] and 101 % of control under setting [3].

In the case of `Cc1ccc2c3nc4ccccc4c-3csc2c1`, the T/C runs as follows: (dose: 18.0 mg/kg/injection, schedule: Q01DX009 (ip), vehicle: saline) 104 % of control; (dose: 27.5 mg/kg/injection, schedule: Q01DX009 (ip), vehicle: saline) 89 % of control.

As to `CCC1CN2CCc3cc(OC)c(OC)cc3C2CC1C#N` (configuration not stated), the T/C under setting [4] was 93 % of control.

On to `Clc1c2ccccc2[se][n+]1-c1ccccc1`, for which the T/C reads like this: (dose: 12.5 mg/kg/injection, schedule: Q01DX009 (ip), vehicle: Klucel (hydroxypropylcellulose) (HPC)) 109 % of control; (dose: 25.0 mg/kg/injection, schedule: Q01DX009 (ip), vehicle: Klucel (hydroxypropylcellulose) (HPC)) 111 % of control; under setting [5], 115 % of control.

Take `Nc1cc(=O)[nH]c(O)c1C(=O)O`: the T/C (dose: 25.0 mg/kg/injection, schedule: Q01DX009 (ip), vehicle: saline with Tween-80) was 95 % of control.

With `CCCCC(CC)C(=O)OCCNC(=O)C(C)OC(=O)C(CC)CCCC` (configuration not stated), the T/C is 105 % of control (dose: 25.0 mg/kg/injection, schedule: Q01DX005 (ip), vehicle: Klucel (hydroxypropylcellulose) (HPC)); 102 % of control (dose: 50.0 mg/kg/injection, schedule: Q01DX005 (ip), vehicle: Klucel (hydroxypropylcellulose) (HPC)); 95 % of control (dose: 100.0 mg/kg/injection, schedule: Q01DX005 (ip), vehicle: Klucel (hydroxypropylcellulose) (HPC)); 105 % of control (dose: 200.0 mg/kg/injection, schedule: Q01DX005 (ip), vehicle: Klucel (hydroxypropylcellulose) (HPC)).

With `CC(=O)C/C(=N\NS(=O)(=O)c1cc(Cl)c(Cl)cc1Cl)c1ccc([N+](=O)[O-])cc1`, the T/C was 99 % of control under setting [6], 100 % of control under setting [7] and 97 % of control under setting [8].

As to `CNC(=O)OCc1c(COC(=O)NC)c2n(c1C)-c1ccccc1CCC2`, the T/C is, setting by setting: (dose: 2.5 mg/kg/injection, schedule: Q01DX005 (ip), vehicle: Klucel (hydroxypropylcellulose) (HPC)) 154 % of control; (dose: 10.0 mg/kg/injection, schedule: Q01DX005 (ip), vehicle: Klucel (hydroxypropylcellulose) (HPC)) 152 % of control.

`COC(=O)N1CCC(N)(C#N)CC1`: the T/C is 100 % of control (dose: 12.5 mg/kg/injection, schedule: Q04DX003 (ip), vehicle: Klucel (hydroxypropylcellulose) (HPC)) and 93 % of control (dose: 25.0 mg/kg/injection, schedule: Q04DX003 (ip), vehicle: Klucel (hydroxypropylcellulose) (HPC)).

Regarding `COc1ccc(S(=O)(=O)N/N=C/c2cccc([N+](=O)[O-])c2O)cc1`, the T/C runs as follows: (dose: 50.0 mg/kg/injection, schedule: Q01DX005 (ip), vehicle: saline with Tween-80) 100 % of control; (dose: 100.0 mg/kg/injection, schedule: Q01DX005 (ip), vehicle: saline with Tween-80) 100 % of control; (dose: 200.0 mg/kg/injection, schedule: Q01DX005 (ip), vehicle: saline with Tween-80) 95 % of control.

On to `C/C(=C\c1c[nH]c2ccccc12)[N+](=O)[O-]`, for which the T/C is 109 % of control under setting [9], 104 % of control under setting [10] and 124 % of control under setting [11].

Consider `Cn1c(=O)c2c(nc(/N=C/c3ccc([N+](=O)[O-])cc3)n2C)n(C)c1=O`, for which the T/C by setting is: under setting [6], 100 % of control; under setting [7], 86 % of control; under setting [8], 93 % of control.

Regarding `O=Cc1ccc(COCCO)o1`, the T/C is, setting by setting: under setting [1], 105 % of control; under setting [2], 102 % of control; under setting [3], 102 % of control.

Regarding `[Co+2].[O-]c1ccccc1/C=N/Nc1ccccn1.[O-]c1ccccc1/C=N/Nc1ccccn1`, the T/C was 91 % of control (dose: 100.0 mg/kg/injection, schedule: Q04DX002 (ip), vehicle: saline with Tween-80); 90 % of control (dose: 200.0 mg/kg/injection, schedule: Q04DX002 (ip), vehicle: saline with Tween-80); 95 % of control (dose: 400.0 mg/kg/injection, schedule: Q04DX002 (ip), vehicle: saline with Tween-80).

Consider `C[Si](C)(C)CN1CCCC1`, for which the T/C by setting is: (dose: 50.0 mg/kg/injection, schedule: Q01DX005 (ip), vehicle: saline) 108 % of control; (dose: 100.0 mg/kg/injection, schedule: Q01DX005 (ip), vehicle: saline) 101 % of control.

For `C/C(CC1C(CCO)C1(C)C)=N\NC(N)=O` (configuration not stated), the T/C is, setting by setting: (dose: 60.0 mg/kg/injection, schedule: Q01DX005 (ip), vehicle: Klucel (hydroxypropylcellulose) (HPC)) 98 % of control; (dose: 120.0 mg/kg/injection, schedule: Q01DX005 (ip), vehicle: Klucel (hydroxypropylcellulose) (HPC)) 100 % of control; (dose: 240.0 mg/kg/injection, schedule: Q01DX005 (ip), vehicle: Klucel (hydroxypropylcellulose) (HPC)) 106 % of control.

On to `CC(=NCc1ccccc1)c1ccccc1O`, for which the T/C is 99 % of control under setting [5]; 106 % of control under setting [4]; 93 % of control (dose: 100.0 mg/kg/injection, schedule: Q01DX009 (ip), vehicle: Klucel (hydroxypropylcellulose) (HPC)); 116 % of control under setting [9]; 92 % of control (dose: 200.0 mg/kg/injection, schedule: Q01DX009 (ip), vehicle: Klucel (hydroxypropylcellulose) (HPC)); 98 % of control under setting [10]. The T/C under setting [11] is 109 % of control.

Turning to `Cc1nc(NN)nc(N)c1S(=O)(=O)Cc1ccc(Cl)cc1`, the T/C (dose: 100.0 mg/kg/injection, schedule: Q04DX002 (ip), vehicle: saline) was 94 % of control; the T/C (dose: 200.0 mg/kg/injection, schedule: Q04DX002 (ip), vehicle: saline) was 90 % of control; the T/C (dose: 400.0 mg/kg/injection, schedule: Q04DX002 (ip), vehicle: saline) is 90 % of control.

Take `CC(C)CC(NC(=O)OC(C)(C)C)C(=O)CBr` (configuration not stated): the T/C was 105 % of control (dose: 12.5 mg/kg/injection, schedule: Q01DX001 (ip), vehicle: saline with Tween-80); 105 % of control (dose: 25.0 mg/kg/injection, schedule: Q01DX001 (ip), vehicle: saline with Tween-80); 96 % of control (dose: 50.0 mg/kg/injection, schedule: Q01DX001 (ip), vehicle: saline with Tween-80).

For `CC(=O)Nc1cccc([N+](=O)[O-])c1`, the T/C runs as follows: (dose: 50.0 mg/kg/injection, schedule: Q04DX003 (ip), vehicle: saline with Tween-80) 110 % of control; (dose: 100.0 mg/kg/injection, schedule: Q04DX003 (ip), vehicle: saline with Tween-80) 110 % of control; (dose: 200.0 mg/kg/injection, schedule: Q04DX003 (ip), vehicle: saline with Tween-80) 110 % of control.
